Consider 17 molecules from patent US20230340011A1 (Asteroid Therapeutics, priority 2022, published 2023).

pEC50, pIC50: −log10 of the molar value.

In one test the target is SREBP-2 (Homo sapiens (Human), UniProt Q12772). Put plainly: In vitro assay SREBP-2: PathHunter U2OS SREBP-2 Nuclear Translocation Cell Line, U18666A-stimulated. Type of test: cell-based. The settings on record: PathHunter U2OS SREBP-2 nuclear translocation cells, U18666A 10 μM, overnight (16 hours).
The target of a further test is LXRβ (Homo sapiens (Human), UniProt P55055). Put plainly: In vitro assay LXRβ: PathHunter NHR CHO cells, LXRβ / Steroid Receptor Co-activator Peptide enzyme fragment complementation. Type of test: cell-based. Particulars: PathHunter NHR CHO cells, full-length human LXRβ and SRCP, chemiluminescent signal; read-out: LXRβ PPI. The procedure, abridged: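 Enzyme fragment complementation read-out: CHO cells stably expressing ProLink-tagged full-length human LXRβ plus nuclear enzyme acceptor–SRCP fusion, seeded and held overnight at 37° C. Medium with charcoal-dextran filtered serum; final vehicle 1%. Chemiluminescence measured after signal generation.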
LXRβ, sequence (P55055 whole entry, the tested form may be a part): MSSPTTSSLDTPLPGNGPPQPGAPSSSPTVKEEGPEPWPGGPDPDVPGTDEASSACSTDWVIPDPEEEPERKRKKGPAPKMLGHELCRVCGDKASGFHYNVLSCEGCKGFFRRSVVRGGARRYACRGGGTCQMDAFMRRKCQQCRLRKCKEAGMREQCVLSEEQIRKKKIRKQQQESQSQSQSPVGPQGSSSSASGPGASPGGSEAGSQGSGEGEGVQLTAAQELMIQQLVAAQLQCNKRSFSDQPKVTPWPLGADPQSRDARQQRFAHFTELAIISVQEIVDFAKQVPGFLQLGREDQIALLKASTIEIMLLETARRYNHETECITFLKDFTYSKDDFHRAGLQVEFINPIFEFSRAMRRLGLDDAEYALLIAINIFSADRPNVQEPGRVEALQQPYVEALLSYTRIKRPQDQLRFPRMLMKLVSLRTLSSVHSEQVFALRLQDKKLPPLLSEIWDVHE

By pIC50 is commonly meant the negative decadic logarithm of the IC50, by convention in mol/L. For `Cc1nnc(N2CCN(C(=O)CC[C@@H](C)[C@H]3CC[C@H]4[C@@H]5CC=C6C[C@@H](O)CC[C@]6(C)[C@H]5CC[C@]34C)[C@@H](C)C2)o1` [Example 635, (R)-4-((3S,8S,9S,10R,13R,14S,17R)-3-hydroxy-10,13-dimethyl-2,3,4,7,8,9,10,11,12,13,14,15,16,17-tetradecahydro-1H-cyclopenta[a]phenanthren-17-yl)-1-((S)-2-methyl-4-(5-methyl-1,3,4-oxadiazol-2-yl)piperazin-1-yl)pentan-1-one], on SREBP-2, the pIC50 is > 6.60. Also, at LXRβ, the pEC50 is < 5.00.
The matching figures for `C[C@H](CCC(=O)N1CCN(c2cc(N)ncn2)CC1)[C@H]1CC[C@H]2[C@@H]3CC=C4C[C@@H](O)CC[C@]4(C)[C@H]3CC[C@]12C` [Example 633, (R)-1-(4-(6-aminopyrimidin-4-yl)piperazin-1-yl)-4-((3S,8S,9S,10R,13R,14S,17R)-3-hydroxy-10,13-dimethyl-2,3,4,7,8,9,10,11,12,13,14,15,16,17-tetradecahydro-1H-cyclopenta[a]phenanthren-17-yl)pentan-1-one]: > 6.60 and < 5.00.
On the same counts, the results for `Cc1nccc(N2CCN(C(=O)CC[C@@H](C)[C@H]3CC[C@H]4[C@@H]5CC=C6C[C@@H](O)CC[C@]6(C)[C@H]5CC[C@]34C)CC2)n1` [Example 205, (R)-4-((3S,8S,9S,10R,13R,14S,17R)-3-hydroxy-10,13-dimethyl-2,3,4,7,8,9,10,11,12,13,14,15,16,17-tetradecahydro-1H-cyclopenta[a]phenanthren-17-yl)-1-(4-(2-methylpyrimidin-4-yl)piperazin-1-yl)pentan-1-one] are > 6.60 and < 5.00.
In the case of `C[C@H](CC(=O)N1CCN(C(=O)c2cnn(C)c2)CC1)[C@H]1CC[C@H]2[C@@H]3CC=C4C[C@@H](O)CC[C@]4(C)[C@H]3CC[C@]12C` [Example 594, (R)-3-((3S,8S,9S,10R,13R,14S,17R)-3-hydroxy-10,13-dimethyl-2,3,4,7,8,9,10,11,12,13,14,15,16,17-tetradecahydro-1H-cyclopenta[a]phenanthren-17-yl)-1-(4-(1-methyl-1H-pyrazole-4-carbonyl)piperazin-1-yl)butan-1-one], the pIC50 at SREBP-2 is 5.00 to 6.00. Further, the pEC50 at LXRβ is < 5.00.
The matching figures for `C[C@H](CCC(=O)N1CC[C@H](Oc2ccncc2)C[C@@H]1C)[C@H]1CC[C@H]2[C@@H]3CC=C4C[C@@H](O)CC[C@]4(C)[C@H]3CC[C@]12C` [Example 585, (R)-4-((3S,8S,9S,10R,13R,14S,17R)-3-hydroxy-10,13-dimethyl-2,3,4,7,8,9,10,11,12,13,14,15,16,17-tetradecahydro-1H-cyclopenta[a]phenanthren-17-yl)-1-((2S,4S)-2-methyl-4-(pyridin-4-yloxy)piperidin-1-yl)pentan-1-one]: > 6.60 and 6.00 to 6.60.
The matching figures for `CCC(=O)N1CCN(C(=O)CC[C@@H](C)[C@H]2CC[C@H]3[C@@H]4CC=C5C[C@@H](O)CC[C@]5(C)[C@H]4CC[C@]23C)[C@@H](C)C1` [Example 583, (4R)-4-[(1R,3aS,3bS,7S,9aR,9bS,11aR)-7-hydroxy-9a,11a-dimethyl-1H,2H,3H,3aH,3bH,4H,6H,7H,8H,9H,9aH,9bH,10H,11H,11aH-cyclopenta[a]phenanthren-1-yl]-1-[(2S)-2-methyl-4-propanoylpiperazin-1-yl]pentan-1-one]: > 6.60 and < 5.00.
The matching figures for `Cc1cc(N2CCN(C(=O)CC[C@@H](C)[C@H]3CC[C@H]4[C@@H]5CC=C6C[C@@H](O)CC[C@]6(C)[C@H]5CC[C@]34C)CC2)sn1` [Example 497, (R)-4-((3S,8S,9S,10R,13R,14S,17R)-3-hydroxy-10,13-dimethyl-2,3,4,7,8,9,10,11,12,13,14,15,16,17-tetradecahydro-1H-cyclopenta[a]phenanthren-17-yl)-1-(4-(3-methylisothiazol-5-yl)piperazin-1-yl)pentan-1-one]: > 6.60 and < 5.00.
With `C[C@H](CCC(=O)N1CCN(c2cncn2C)CC1)[C@H]1CC[C@H]2[C@@H]3CC=C4C[C@@H](O)CC[C@]4(C)[C@H]3CC[C@]12C` [Example 481, (4R)-4-[(1R,3aS,3bS,7S,9aR,9bS,11aR)-7-hydroxy-9a,11a-dimethyl-1H,2H,3H,3aH,3bH,4H,6H,7H,8H,9H,9aH,9bH,10H,11H,11aH-cyclopenta[a]phenanthren-1-yl]-1-[4-(1-methyl-1H-imidazol-5-yl)piperazin-1-yl]pentan-1-one], on SREBP-2, the pIC50 is > 6.60. For the same molecule, the pEC50 on LXRβ is < 5.00.
On the same counts, the results for `COC([C@@H]1CCN(C(=O)CC[C@@H](C)[C@H]2CC[C@H]3[C@@H]4CC=C5C[C@@H](O)CC[C@]5(C)[C@H]4CC[C@]23C)C1)(C(F)(F)F)C(F)(F)F` [Example 331, (4R)-4-[(1R,3aS,3bS,7S,9aR,9bS,11aR)-7-hydroxy-9a,11a-dimethyl-1H,2H,3H,3aH,3bH,4H,6H,7H,8H,9H,9aH,9bH,10H,11H,11aH-cyclopenta[a]phenanthren-1-yl]-1-[(3R)-3-(1,1,1,3,3,3-hexafluoro-2-methoxypropan-2-yl)pyrrolidin-1-yl]pentan-1-one] are > 6.60 and < 5.00.
On the same counts, the results for `CON(CC(=O)O)C(=O)CC[C@@H](C)[C@H]1CC[C@H]2[C@@H]3CC=C4C[C@@H](O)CC[C@]4(C)[C@H]3CC[C@]12C` [Example 63, N—((R)-4-((3S,8S,9S,10R,13R,14S,17R)-3-hydroxy-10,13-dimethyl-2,3,4,7,8,9,10,11,12,13,14,15,16,17-tetradecahydro-1H-cyclopenta[a]phenanthren-17-yl)pentanoyl)-N-methoxyglycine] are < 5.00 and 6.00 to 6.60.
On the same counts, the results for `C[C@H](CCc1cccc(Cl)n1)[C@H]1CC[C@H]2[C@@H]3CC=C4C[C@@H](O)CC[C@]4(C)[C@H]3CC[C@]12C` [Example 165, (3S,8S,9S,10R,13R,14S,17R)-17-((R)-4-(6-chloropyridin-2-yl)butan-2-yl)-10,13-dimethyl-2,3,4,7,8,9,10,11,12,13,14,15,16,17-tetradecahydro-1H-cyclopenta[a]phenanthren-3-ol] are 6.00 to 6.60 and < 5.00.
`COC(=O)N1CCN(C(=O)CC[C@@H](C)[C@H]2CC[C@H]3[C@@H]4CC=C5C[C@@H](O)CC[C@]5(C)[C@H]4CC[C@]23C)CC1` [Example 360, methyl 4-((R)-4-((3S,8S,9S,10R,13R,14S,17R)-3-hydroxy-10,13-dimethyl-2,3,4,7,8,9,10,11,12,13,14,15,16,17-tetradecahydro-1H-cyclopenta[a]phenanthren-17-yl)pentanoyl)piperazine-1-carboxylate]: at SREBP-2, the pIC50 was > 6.60. Also, on LXRβ, the pEC50 was < 5.00.
The matching figures for `CC(=O)N1CCCN(C(=O)CC[C@@H](C)[C@H]2CC[C@H]3[C@@H]4CC=C5C[C@@H](O)CC[C@]5(C)[C@H]4CC[C@]23C)CC1` [Example 317, (R)-1-(4-acetyl-1,4-diazepan-1-yl)-4-((3S,8S,9S,10R,13R,14S,17R)-3-hydroxy-10,13-dimethyl-2,3,4,7,8,9,10,11,12,13,14,15,16,17-tetradecahydro-1H-cyclopenta[a]phenanthren-17-yl)pentan-1-one]: > 6.60 and < 5.00.
In the case of `C[C@H](CCC(=O)N1CCN(C(=O)c2ccns2)CC1)[C@H]1CC[C@H]2[C@@H]3CC=C4C[C@@H](O)CC[C@]4(C)[C@H]3CC[C@]12C` [Example 311, (R)-4-((3S,8S,9S,10R,13R,14S,17R)-3-hydroxy-10,13-dimethyl-2,3,4,7,8,9,10,11,12,13,14,15,16,17-tetradecahydro-1H-cyclopenta[a]phenanthren-17-yl)-1-(4-(isothiazole-5-carbonyl)piperazin-1-yl)pentan-1-one], at SREBP-2, the pIC50 was > 6.60. At LXRβ, the pEC50 is < 5.00.
On to `C[C@H](CCC(=O)N1CCN(c2ccnc(OCCO)n2)CC1)[C@H]1CC[C@H]2[C@@H]3CC=C4C[C@@H](O)CC[C@]4(C)[C@H]3CC[C@]12C` [Example 564, (4R)-4-[(1R,3aS,3bS,7S,9aR,9bS,11aR)-7-hydroxy-9a,11a-dimethyl-1H,2H,3H,3aH,3bH,4H,6H,7H,8H,9H,9aH,9bH,10H,11H,11aH-cyclopenta[a]phenanthren-1-yl]-1-{4-[2-(2-hydroxyethoxy)pyrimidin-4-yl]piperazin-1-yl}pentan-1-one], for which the pIC50 on SREBP-2 is > 6.60. For the same molecule, the pEC50 at LXRβ is < 5.00.
Take `Cc1nn(C)cc1N1CCN(C(=O)CC[C@@H](C)[C@H]2CC[C@H]3[C@@H]4CC=C5C[C@@H](O)CC[C@]5(C)[C@H]4CC[C@]23C)CC1` [Example 604, (4R)-4-[(1R,3aS,3bS,7S,9aR,9bS,11aR)-7-hydroxy-9a,11a-dimethyl-1H,2H,3H,3aH,3bH,4H,6H,7H,8H,9H,9aH,9bH,10H,11H,11aH-cyclopenta[a]phenanthren-1-yl]-1-[4-(1,3-dimethyl-1H-pyrazol-4-yl)piperazin-1-yl]pentan-1-one]: the pIC50 on SREBP-2 was > 6.60. Besides, on LXRβ, the pEC50 was < 5.00.
On the same counts, the results for `COc1ccc(CC[C@@H](C)[C@H]2CC[C@H]3[C@@H]4CC=C5C[C@@H](O)CC[C@]5(C)[C@H]4CC[C@]23C)nc1` [Example 601, (1R,3aS,3bS,7S,9aR,9bS,11aR)-1-[(2R)-4-(5-methoxypyridin-2-yl)butan-2-yl]-9a,11a-dimethyl-1H,2H,3H,3aH,3bH,4H,6H,7H,8H,9H,9aH,9bH,10H,11H,11aH-cyclopenta[a]phenanthren-7-ol] are 6.00 to 6.60 and 5.00 to 6.00.
